Assay results taken from patent publication US11312676B2, “Small molecule stimulators of steroid receptor coactivator proteins and their use in the treatment of cancer” (BAYLOR COLLEGE OF MEDICINE, priority 2014, dated 2022).

What was measured:
[1] = biological target: T1, basic helix-loop-helix (bHLH) domain of SRC-3 (Homo sapiens, UniProt Q9Y6Q9); assay: Fluorescence spectroscopy, intrinsic fluorescence of GST SRC-3 bHLH; format: binding; settings: 1.5 μM GST SRC-3 bHLH
T1 construct: MCB-613 also affected the fluorescence of the basic helix-loop-helix (bHLH) domain; made in house
T1 sequence (Q9Y6Q9 25-82 limits assumed): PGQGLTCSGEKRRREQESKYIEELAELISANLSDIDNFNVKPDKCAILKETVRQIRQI
Procedure: Fluorescence spectrometric measurements were performed on a SLM 48000S fluorescence spectrophotometer (SLM-Aminco, Rochester, N.Y.) and an Agilent Cary Eclipse Fluorescence spectrophotometer (Agilent Technologies, Inc., Santa Clara, Calif.) using the GST fusion proteins of different portions of SRC-3 expressed and purified. A total of 1.5 μM of GST SRC-3 RID, CID or bHLH was placed in a fluorescence cuvette and excited by UV light at a wavelength of 278 nm with a 2 nm bandwidth and the emission spectra were recorded from 290 nm to above 500 nm with a bandwidth of 4 nm. The aliquot size of test compound was maintained below 5% of the total sample volume in order to minimize the effects of dilution.

[2] = system: PC-3 (prostate) cells; assay: MTS cell viability assay, PC-3; format: cell-based; settings: PC-3, 48 hours
Procedure: Cell lines were maintained in DMEM (HeLa, MCF-7, HepG2), RPMI 1640 (H1299), or DMEM/F12 (PC-3) supplemented with 10% fetal calf serum, penicillin and streptomycin (100 U/ml). Primary mouse hepatocytes were isolated and cultured. Mouse embryonic fibroblasts (MEF) were cultured in DMEM. All cells were maintained at 37° C. under 5% CO2.
Cells were seeded in 96-well plates and allowed to reach 70% to 80% confluence. After indicated compound treatments, relative numbers of viable cells were measured by MTS assay using the Cell Titer 96 Aqueous One Solution Cell Proliferation Assay (Promega).

[3] = biological target: SRC-1 (Homo sapiens, UniProt Q15788); assay: High throughput primary screen, HEK293 cells with pG5-luc and pBIND-SRC-1; format: cell-based; parameters: expressed in transfected cells; settings: among 359,484 compounds
Chain of SRC-1 (Q15788 whole entry, the tested form may be a part): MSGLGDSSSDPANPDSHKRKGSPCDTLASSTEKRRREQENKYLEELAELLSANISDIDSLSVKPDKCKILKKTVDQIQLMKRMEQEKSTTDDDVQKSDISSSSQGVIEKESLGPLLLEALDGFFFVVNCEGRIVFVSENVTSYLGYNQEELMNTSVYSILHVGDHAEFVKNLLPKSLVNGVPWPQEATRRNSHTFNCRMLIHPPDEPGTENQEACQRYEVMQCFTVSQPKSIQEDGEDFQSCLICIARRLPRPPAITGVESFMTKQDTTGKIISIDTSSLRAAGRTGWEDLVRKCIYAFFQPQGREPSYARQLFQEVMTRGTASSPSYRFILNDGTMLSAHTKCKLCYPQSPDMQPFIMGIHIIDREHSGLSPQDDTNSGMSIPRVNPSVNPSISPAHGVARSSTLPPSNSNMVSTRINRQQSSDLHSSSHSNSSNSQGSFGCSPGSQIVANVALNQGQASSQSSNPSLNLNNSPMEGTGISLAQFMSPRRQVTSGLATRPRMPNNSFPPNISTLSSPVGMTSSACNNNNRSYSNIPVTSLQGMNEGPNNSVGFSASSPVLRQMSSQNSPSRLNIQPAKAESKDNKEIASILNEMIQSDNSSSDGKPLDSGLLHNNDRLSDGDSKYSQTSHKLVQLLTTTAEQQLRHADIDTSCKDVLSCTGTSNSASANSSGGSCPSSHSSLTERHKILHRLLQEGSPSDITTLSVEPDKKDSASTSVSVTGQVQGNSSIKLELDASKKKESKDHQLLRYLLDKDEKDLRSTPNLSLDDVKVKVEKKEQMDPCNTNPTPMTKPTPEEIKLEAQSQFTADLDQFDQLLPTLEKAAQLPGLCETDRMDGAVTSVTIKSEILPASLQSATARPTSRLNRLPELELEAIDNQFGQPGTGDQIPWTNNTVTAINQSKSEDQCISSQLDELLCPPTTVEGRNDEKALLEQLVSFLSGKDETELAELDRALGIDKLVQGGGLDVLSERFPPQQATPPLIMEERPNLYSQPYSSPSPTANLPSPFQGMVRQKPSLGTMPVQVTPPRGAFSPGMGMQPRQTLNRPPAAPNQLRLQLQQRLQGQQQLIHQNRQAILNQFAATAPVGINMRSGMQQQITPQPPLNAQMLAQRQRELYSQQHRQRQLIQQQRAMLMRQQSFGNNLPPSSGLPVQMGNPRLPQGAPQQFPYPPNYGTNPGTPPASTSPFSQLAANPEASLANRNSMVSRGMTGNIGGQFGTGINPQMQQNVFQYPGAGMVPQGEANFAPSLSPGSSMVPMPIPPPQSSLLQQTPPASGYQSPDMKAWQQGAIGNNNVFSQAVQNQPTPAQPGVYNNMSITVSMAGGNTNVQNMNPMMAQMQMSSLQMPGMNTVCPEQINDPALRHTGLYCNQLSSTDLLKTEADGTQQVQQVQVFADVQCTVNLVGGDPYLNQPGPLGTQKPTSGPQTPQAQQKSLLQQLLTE
Excerpt: In a series of high throughput screens originally designed to identify SRC small molecule inhibitors, HEK293 cells transfected with a Gal4 responsive luciferase reporter (pG5-luc) and a construct encoding SRC-1, SRC-2 or SRC-3 fused with the DNA binding domain of Gal4 (pBIND-SRC-1, pBIND-SRC-2 or pBIND-SRC-3) were exposed to treatments with 359,484 compounds from a MLPCN chemical library (PubChem AID:588362, AID:652008 and AID:588354).

## CCC1CC(=Cc2cccnc2)C(=O)C(=Cc2cccnc2)C1 (stereo not drawn) [MCB-613, 4-Ethyl-2,6-bis-pyridin-3-ylmethylene-cyclohexanone]
[1]
  concentration affecting the fluorescence of the bHLH domain: 2 µM
[2]
  cytotoxicity, cell viability: efficiently kill
[3]
  activation of SRC-1 in the primary screen: greatest activation
